Results published in paper PMC8157031, “Identification of Binding Regions of Bilirubin in the Ligand-Binding Pocket of the Peroxisome Proliferator-Activated Receptor-A (PPARalpha)” (Molecules, 2021).
Residue numbers refer to the chain shown, from its start. pKd: −log10 of the molar value.

Legend:
[1] = target: T1, PPARα (Mus musculus, UniProt P23204, T283G); experiment: bilirubin autofluorescence with purified mutant; binding reduced by […]
T1 construct: gene Ppara; full-length histidine-tagged mouse PPARα
T1 sequence (P23204 1-468 T283G): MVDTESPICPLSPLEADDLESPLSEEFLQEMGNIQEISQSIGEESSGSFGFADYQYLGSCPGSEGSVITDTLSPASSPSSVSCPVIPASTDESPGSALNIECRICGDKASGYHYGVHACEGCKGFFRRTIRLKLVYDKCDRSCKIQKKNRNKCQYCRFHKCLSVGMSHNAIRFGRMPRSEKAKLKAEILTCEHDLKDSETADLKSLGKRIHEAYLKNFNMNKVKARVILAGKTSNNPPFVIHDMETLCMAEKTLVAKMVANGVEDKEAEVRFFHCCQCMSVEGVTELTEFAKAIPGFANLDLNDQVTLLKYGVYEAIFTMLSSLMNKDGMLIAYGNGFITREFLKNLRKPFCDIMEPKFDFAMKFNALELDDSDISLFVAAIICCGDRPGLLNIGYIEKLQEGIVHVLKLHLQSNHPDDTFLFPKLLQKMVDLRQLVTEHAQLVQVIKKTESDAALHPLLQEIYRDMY

[2] = target: T2, bovine serum albumin (BSA) (Bos taurus, UniProt P02769); experiment: bilirubin autofluorescence titration (excitation […] nm); format: binding
T2 construct: gene ALB
T2 sequence (P02769 25-607): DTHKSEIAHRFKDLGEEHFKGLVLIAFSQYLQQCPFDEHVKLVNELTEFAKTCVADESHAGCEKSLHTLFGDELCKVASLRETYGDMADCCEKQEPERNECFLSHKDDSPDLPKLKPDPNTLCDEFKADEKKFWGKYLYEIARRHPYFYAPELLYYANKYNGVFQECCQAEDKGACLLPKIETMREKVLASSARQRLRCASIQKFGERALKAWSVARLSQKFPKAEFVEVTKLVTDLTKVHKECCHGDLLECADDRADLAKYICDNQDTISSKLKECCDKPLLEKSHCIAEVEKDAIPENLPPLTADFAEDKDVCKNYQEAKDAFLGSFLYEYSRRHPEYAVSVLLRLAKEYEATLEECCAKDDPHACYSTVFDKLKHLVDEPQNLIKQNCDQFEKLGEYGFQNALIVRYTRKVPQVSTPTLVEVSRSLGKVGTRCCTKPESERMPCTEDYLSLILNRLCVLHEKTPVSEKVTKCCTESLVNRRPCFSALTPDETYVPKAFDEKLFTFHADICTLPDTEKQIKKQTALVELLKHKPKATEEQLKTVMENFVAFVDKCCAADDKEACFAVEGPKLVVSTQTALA

[3] = target: T3, PPARα (Mus musculus, UniProt P23204, A333G); experiment: bilirubin autofluorescence with purified mutant; binding reduced by […]
T3 construct: gene Ppara; full-length histidine-tagged mouse PPARα
T3 sequence (P23204 1-468 A333G): T1 sequence (P23204 1-468 T283G) with G283T, A333G

[4] = target: T4, PPARα (Mus musculus, UniProt P23204); experiment: bilirubin autofluorescence titration with purified His-PPARα; format: binding
T4 construct: gene Ppara; full-length histidine-tagged mouse PPARα
T4 sequence (P23204 1-468): T1 sequence (P23204 1-468 T283G) with G283T

[5] = target: T2, bovine serum albumin (BSA); experiment: biliverdin autofluorescence dose-response (excitation […] nm); format: binding

| Structure (SMILES) | % reduction of binding [1] | pKd [2] | % reduction of binding [3] | pKd [4] | biliverdin autofluorescence dose-response (excitation 440 nm) [5] |
| --- | --- | --- | --- | --- | --- |
| C=CC1=C(C)/C(=C/c2[nH]c(Cc3[nH]c(/C=C4\NC(=O)C(C)=C4C=C)c(C)c3CCC(=O)O)c(CCC(=O)O)c2C)NC1=O [BR, bilirubin] | 11.4 % reduction of binding | 4.95 | 17.0 % reduction of binding | 5.29 | – |
| C=CC1=C(C)/C(=C/C2=NC(=C\c3[nH]c(/C=C4\NC(=O)C(C)=C4C=C)c(C)c3CCC(=O)O)/C(CCC(=O)O)=C2C)NC1=O [BV, biliverdin] | – | – | – | – | The results in Figure 1C show a dose-dependent increase in fluorescence for biliverdin bound to albumin |
